Measurements reported in patent US20170119907A1, “Targeted Therapeutics” (MEDIVATION TECHNOLOGIES, INC., priority 2014, published 2017).

Key:
hMSCs = assay: Differentiation of human MSCs to chondrocytes in pellet culture (aggrecan stain); assay type: cell-based; conditions: for ECM area (Aggrecan stain): 10 μM, 21 days, Differentiation Medium +, aggrecan ratio relative to cell number; for Differentiation of hMSCs to chondrocytes (in words): compound and differentiation medium, with or without priming, relative to control without differentiation medium
Protocol: hMSCs (Lonza, Cat No PT-2501) were cultured in complete mesenchymal stem cell culture medium (Lonza, Cat No PT-3238). For differentiation experiments, complete mesenchymal stem cell culture medium was removed, and hMSCs were either incubated for 30 min in chondrocyte differentiation medium containing TGFβ (R&D Systems, Cat No CCM005 and CCM006) (primed condition) or maintained in complete mesenchymal stem cell culture medium for 30 min.
hMSCs were collected, washed in PBS, and incubated in 500 μL of 10 μM Compound 4 or 20 in PBS for 20 min. Cells were washed in PBS and counted. 5×10^5 cells were placed in a 15 mL tube. The cells were centrifuged at 500 g for 7 min, and either 500 μL of maintenance medium (Lonza, Cat No PT-3238) or chondrocyte differentiation medium was added gently. The medium was changed every 2 to 3 days for three weeks, maintaining the 500 μL volume.
After three weeks, the medium was removed, and cell pellets were fixed in 500 μL of a 4% paraformaldehyde (PFA) in PBS solution for 20 min at room temperature. The solution was removed, and 500 μL of a 4% PFA, 15% sucrose in PBS was added, and the mixture was left overnight. The solution was removed, and 500 μL of a 4% PFA, 30% sucrose in PBS was added, then the mixture was left overnight or until the pellet was in the bottom of the tube. The pellet culture was frozen in TISSUE-TEK® O.C.T. compound (Cat No 4583), and 5 μm cuts were made. The slices were fixed on a positive charged slide (Cell Path, Cat No MDB-0102-54A). A hydrophobic pen was used to draw a line around the cuts on the slide.
100-300 μL of blocking solution (1% BSA, 0.3% TRITON® X-100 in PBS) was added on top of the slices which were left for 1 h at RT. The blocking solution was extracted with a micropipette. Primary antibody (goat anti-aggrecan G1-IgD-G2 domain, R&D systems, Cat No AF1220) was diluted 1:20 in blocking solution, and 100-200 μL of this solution was added on top of the slices. The slides were left at 4° C. overnight in a humidified box. The primary antibody solutions were removed, and the slices were washed 3 times with 1% BSA in PBS for 5 min. The lines were redrawn around the slices with the hydrophobic pen. From the incubation with the secondary antibody and on, the samples were kept in the dark to avoid degrading the fluorophore.
The secondary antibodies were diluted 1:100 in blocking solution. 100-200 μL of the secondary antibody solution (donkey anti-goat IgG Alexa fluor 488, Invitrogen, Cat No A11055) was added to the slices. The slices were incubated for 1 h at RT. The slices were washed 3 times with 1% BSA in PBS for 5 min. The lines were redrawn around the slices with the hydrophobic pen.
Slices were stained with 100-200 μL of a 1:2000 dilution of DAPI in PBS for 5 min at RT. The DAPI was removed, and the slices were washed 3 times with PBS for 5 min, then washed a 4th time with distilled water for another 5 min. The slides were left to dry. 30 μL of Fluorescent Mounting Medium was added, and then the slices were covered with a coverslip.

[1] = test system: MSCs from sheep bone marrow; assay: Differentiation of sheep MSCs to chondrocytes in pellet culture (modified Bern Score); assay type: cell-based; conditions: for Cell Distance / Matrix Stain / Morphology: score 0-3; for Final Score (Bern Score): score 0-9
Protocol: Compounds of the invention were assessed in an in vitro pellet cell culture model of chondrogenesis.
Conditions tested were: • a. (1) Priming: exposure of cells to TGFβ3 prior to incubation with Compound 4 or Compound 20; • b. (2) Dose: Concentration of Compound 4 or Compound 20 that cells were incubated with prior to pellet culture; and • c. (3) Media: presence or absence of TGFβ3 in the media used for the 3-week pellet culture duration.
A population of cells enriched for MSCs from sheep bone marrow was harvested, cultured and expanded. Cells from passage 3 (P3) were incubated with either chondrogenic differentiation medium for the Priming “+” groups or chondrogenic differentiation medium without TGFβ3 for the Priming “−” groups. Following centrifugation at 400×g for 5 min and gentle removal of the supernatant, cells were re-suspended with the appropriate number of cells in Compound 4 or Compound 20 in 1×PBS, pH 7, at following concentrations: 10 μM, 3.16 μM, 1 μM, and 0.316 μM of Compound 4; or 10 μM and 1 μM of Compound 20. For control conditions, cells were incubated in 1×PBS at pH 7. All treatment groups were then incubated for 30 min in the dark with nutation. Following centrifugation at 400×g for 5 min and gentle removal of the supernatant, cells were re-suspended and washed with 1×PBS at pH 7 and spun at 400×g for 5 min to remove supernatant. Depending on the condition, cells were re-suspended cells in chondrogenic differentiation medium OR in chondrogenic medium without TGFb3. Cells were counted, and approximately 2.5×10^5 cells were plated into polypropylene 96-well plates incubated under standard pellet culture conditions for three weeks. Medium was changed 3× weekly.
Pellets were fixed in 10% formalin for at least 8 hours and then infiltrated with paraffin wax. Sections were then cut at approximately 5 microns and stained using safranin-orange, Fast Green, Haematoxylin-Eosin, and 1% Toluidine Blue.
Histological grading was performed according to a modified Bern Score to assess chondrogenic morphology of the cells and any matrix deposition by the cells according to the following three criteria:
The subcomponents of the Bern Score are additive. Accordingly, the Bern Score presents a maximum total score of 9 representing the best possible score and minimum score of 0 representing no chondrogenesis.
In this Example, the Bern Score for Control pellets is a proxy for chondrogenic capacity of the cell population using a standard pellet culture protocol. […] Pellets that were formed using the 30 minute incubation protocol with only PBS replacing Compound 4 (0 μM Compound 4) are referred to as “PBS pellets.”

[2] = Differentiation Medium +, TGFβ3 Priming +, 1 μM
[3] = Differentiation Medium +, TGFβ3 Priming +, 10 μM
[4] = Differentiation Medium +, TGFβ3 Priming −, 1 μM
[5] = Differentiation Medium +, TGFβ3 Priming −, 10 μM
[6] = Differentiation Medium −, TGFβ3 Priming +, 1 μM
[7] = Differentiation Medium −, TGFβ3 Priming +, 10 μM
[8] = Differentiation Medium +, TGFβ3 Priming +, 0.316 μM
[9] = Differentiation Medium +, TGFβ3 Priming +, 3.16 μM
[10] = Differentiation Medium +, TGFβ3 Priming −, 0.316 μM
[11] = Differentiation Medium +, TGFβ3 Priming −, 3.16 μM
[12] = Differentiation Medium −, TGFβ3 Priming +, 0.316 μM
[13] = Differentiation Medium −, TGFβ3 Priming +, 3.16 μM

Cc1cc2nc3cc(C)c(NCCCCCCNC(=O)c4ccc(-c5ccc(C(=O)NCCCCCCNc6cc7c(cc6C)nc6cc(C)c(N)cc6[n+]7-c6ccccc6)cc5)cc4)cc3[n+](-c3ccccc3)c2cc1N.[Cl-].[Cl-] [Compound 20, (3-amino-7-{[6-({4-[4-({6-[(7-amino-5-chloranuide-2,8-dimethyl-5-phenyl-5λ^6,10-phenazin-5-ylium-3-yl)amino]hexyl}carbamoyl)phenyl]phenyl}formamido)hexyl]amino}-2,8-dimethyl-5-phenyl-5λ^6,10-phenazin-5-ylium-5-e)chloranuide]
ECM area (Aggrecan stain) (hMSCs; Priming +): 0.97 | ECM area (Aggrecan stain) (hMSCs; Priming −): 0.74 | Differentiation of hMSCs to chondrocytes (in words) (hMSCs): induced high levels of differentiation | Cell Distance [1, 2]: 3 | Matrix Stain [1, 2]: 3 | Morphology [1, 2]: 2.5 | Final Score (Bern Score) [1, 2]: 8.5 | Cell Distance [1, 3]: 2.5 | Matrix Stain [1, 3]: 2.5 | Morphology [1, 3]: 2.5 | Final Score (Bern Score) [1, 3]: 7.5 | Cell Distance [1, 4]: 2.5 | Matrix Stain [1, 4]: 2.5 | Morphology [1, 4]: 2 | Final Score (Bern Score) [1, 4]: 7 | Cell Distance [1, 5]: 2 | Matrix Stain [1, 5]: 2 | Morphology [1, 5]: 2 | Final Score (Bern Score) [1, 5]: 6 | Cell Distance [1, 6]: 0 | Matrix Stain [1, 6]: 0 | Morphology [1, 6]: 0 | Final Score (Bern Score) [1, 6]: 0 | Cell Distance [1, 7]: 0 | Matrix Stain [1, 7]: 0 | Morphology [1, 7]: 0 | Final Score (Bern Score) [1, 7]: 0 | Chondrogenic capacity (in words) ([1]; either concentration tested (10 μM and 1 μM) and differentiation medium): good chondrogenic capacity

Cc1cc2nc3cc(C)c(NCCCCCCCCNc4cc5c(cc4C)nc4cc(C)c(N)cc4[n+]5-c4ccccc4)cc3[n+](-c3ccccc3)c2cc1N.[Cl-].[Cl-] [Compound 4, 7,7′-(octane-1,8-diylbis(azanediyl))bis(3-amino-2,8-dimethyl-5-phenylphenazin-5-ium) chloride]
ECM area (Aggrecan stain) (hMSCs; Priming +): 1.41 | ECM area (Aggrecan stain) (hMSCs; Priming −): 0.74 | Differentiation of hMSCs to chondrocytes (in words) (hMSCs): induced high levels of differentiation | Chondrogenic capacity (in words) ([1]; 3.16 μM and differentiation medium): good chondrogenic capacity | Cell Distance [1, 8]: 3 | Matrix Stain [1, 8]: 3 | Morphology [1, 8]: 3 | Final Score (Bern Score) [1, 8]: 9 | Cell Distance [1, 2]: 2.5 | Matrix Stain [1, 2]: 3 | Morphology [1, 2]: 2 | Final Score (Bern Score) [1, 2]: 7.5 | Cell Distance [1, 9]: 2 | Matrix Stain [1, 9]: 2 | Morphology [1, 9]: 2 | Final Score (Bern Score) [1, 9]: 6 | Cell Distance [1, 3]: 0 | Matrix Stain [1, 3]: 0 | Morphology [1, 3]: 0 | Final Score (Bern Score) [1, 3]: 0 | Cell Distance [1, 10]: 2.5 | Matrix Stain [1, 10]: 3 | Morphology [1, 10]: 2.5 | Final Score (Bern Score) [1, 10]: 8 | Cell Distance [1, 4]: 2 | Matrix Stain [1, 4]: 2.5 | Morphology [1, 4]: 2 | Final Score (Bern Score) [1, 4]: 6.5 | Cell Distance [1, 11]: 2 | Matrix Stain [1, 11]: 2 | Morphology [1, 11]: 2 | Final Score (Bern Score) [1, 11]: 6 | Cell Distance [1, 5]: 0 | Matrix Stain [1, 5]: 0.5 | Morphology [1, 5]: 0 | Final Score (Bern Score) [1, 5]: 0.5 | Cell Distance [1, 12]: 0 | Matrix Stain [1, 12]: 0 | Morphology [1, 12]: 0 | Final Score (Bern Score) [1, 12]: 0 | Cell Distance [1, 6]: 0 | Matrix Stain [1, 6]: 0 | Morphology [1, 6]: 0 | Final Score (Bern Score) [1, 6]: 0 | Cell Distance [1, 13]: 0 | Matrix Stain [1, 13]: 0.5 | Morphology [1, 13]: 0 | Final Score (Bern Score) [1, 13]: 0.5 | Cell Distance [1, 7]: 0 | Matrix Stain [1, 7]: 0 | Morphology [1, 7]: 0 | Final Score (Bern Score) [1, 7]: 0
